Series [1] is described as follows: Toxicity against mouse xenografted with human A549 cells assessed as changes in biochemical indicators administered intratumorally on day 0 and 7 and measured on day 15. To be noted: in vivo, other, 360 h, route it(Intratumoral), time 15 day. In general terms: A xenograft is tissue or cells of one species grown in another, often human tumour cells in immunodeficient mice.

Series [2] in a line: Phototherapeutic index, ratio of IC50 for cytotoxicity against human A549 cells measured under normoxia conditions to IC50 for phototoxicity against human A549 cells measured under normoxia conditions and after two-photon excitation upon irradiation with light at 808 nm, 200 mW/cm2 for 10 mins. In kind it is functional.
The test system of series [3] is A549. As to the kind of experiment: Induction of mitochondrial damage in human A549 cells assessed as decrease in red fluorescence intensity measured upon light irradiation by JC-1 staining based fluorescence analysis. It counts as functional, cell-based.
In series [4] the test system is A549. Briefly: Induction of apoptosis in human A549 cells assessed as necrotic cells measured under dark conditions by AnnexinV-FITC/PI staining based flow cytometric analysis (reference value: 0.031%). In kind it is functional. (In flow cytometry, cells or beads pass a laser one at a time.)
Series [5] can be described thus: Toxicity against mouse xenografted with human A549 cells assessed as changes in body weight administered intratumorally on day 0 and 7 and measured for 15 days. To be noted: in vivo, other, 360 h, route it(Intratumoral), time 15 day.
The subject of series [6] is A549. As to the kind of experiment: Cytotoxicity against human A549 cells assessed as inhibition of cell growth incubated for 24 hrs measured under normoxia conditions by MTT assay. In kind it is functional, cell-based. To be noted: A549, 24 h. In general terms: Formazan colour is commonly taken as a measure of viable cells.
A short description of series [7]: Toxicity against mouse xenografted with human A549 cells assessed as changes in hematological indicators administered intratumorally on day 0 and 7 and measured on day 15. To be noted: in vivo, other, 360 h, route it(Intratumoral), time 15 day.

Activity calls are given as the source filed them. No cut-off for these calls is given here.

As to `CCn1c2ccc(/C=C/c3cc[n+](C)c4ccccc34)cc2c2cc(N(c3ccccc3)c3ccccc3)ccc21.[I-]`, the Activity entry in series [1] is “Non-toxic”; in the series with A549 [4] it was 0.85%; in series [5] it was “Non-toxic”; in series [7], “Non-toxic”. Besides, the “Ratio IC50” value in series [2] is given as 11. Besides, in the series with A549 [3], the result was Active. In addition, the IC50 (in general, the point on the concentration scale where inhibition reaches its midpoint) with A549 [6] was 1470 nM.
